The compounds below were run against human Cav2.2 (Homo sapiens, UniProt Q00975) (assay: Assessment of calcium channel activity using FLIPR (Ca2+ influx in IMR32 cells)). Conditions: IMR32 cells endogenously expressing human Cav2.2; 60 minute pre-incubation; 2 μM nifedipine; depolarized with 80 mM KCl, 5 mM CaCl2.
Type: cell-based
In short: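 FLIPR measured Ca2+ influx triggered by 80 mM KCl depolarization together with a step to 5 mM external CaCl2. Percent inhibition relative to uninhibited activity was fitted sigmoidally for IC50.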

human Cav2.2, sequence (Q00975 whole entry): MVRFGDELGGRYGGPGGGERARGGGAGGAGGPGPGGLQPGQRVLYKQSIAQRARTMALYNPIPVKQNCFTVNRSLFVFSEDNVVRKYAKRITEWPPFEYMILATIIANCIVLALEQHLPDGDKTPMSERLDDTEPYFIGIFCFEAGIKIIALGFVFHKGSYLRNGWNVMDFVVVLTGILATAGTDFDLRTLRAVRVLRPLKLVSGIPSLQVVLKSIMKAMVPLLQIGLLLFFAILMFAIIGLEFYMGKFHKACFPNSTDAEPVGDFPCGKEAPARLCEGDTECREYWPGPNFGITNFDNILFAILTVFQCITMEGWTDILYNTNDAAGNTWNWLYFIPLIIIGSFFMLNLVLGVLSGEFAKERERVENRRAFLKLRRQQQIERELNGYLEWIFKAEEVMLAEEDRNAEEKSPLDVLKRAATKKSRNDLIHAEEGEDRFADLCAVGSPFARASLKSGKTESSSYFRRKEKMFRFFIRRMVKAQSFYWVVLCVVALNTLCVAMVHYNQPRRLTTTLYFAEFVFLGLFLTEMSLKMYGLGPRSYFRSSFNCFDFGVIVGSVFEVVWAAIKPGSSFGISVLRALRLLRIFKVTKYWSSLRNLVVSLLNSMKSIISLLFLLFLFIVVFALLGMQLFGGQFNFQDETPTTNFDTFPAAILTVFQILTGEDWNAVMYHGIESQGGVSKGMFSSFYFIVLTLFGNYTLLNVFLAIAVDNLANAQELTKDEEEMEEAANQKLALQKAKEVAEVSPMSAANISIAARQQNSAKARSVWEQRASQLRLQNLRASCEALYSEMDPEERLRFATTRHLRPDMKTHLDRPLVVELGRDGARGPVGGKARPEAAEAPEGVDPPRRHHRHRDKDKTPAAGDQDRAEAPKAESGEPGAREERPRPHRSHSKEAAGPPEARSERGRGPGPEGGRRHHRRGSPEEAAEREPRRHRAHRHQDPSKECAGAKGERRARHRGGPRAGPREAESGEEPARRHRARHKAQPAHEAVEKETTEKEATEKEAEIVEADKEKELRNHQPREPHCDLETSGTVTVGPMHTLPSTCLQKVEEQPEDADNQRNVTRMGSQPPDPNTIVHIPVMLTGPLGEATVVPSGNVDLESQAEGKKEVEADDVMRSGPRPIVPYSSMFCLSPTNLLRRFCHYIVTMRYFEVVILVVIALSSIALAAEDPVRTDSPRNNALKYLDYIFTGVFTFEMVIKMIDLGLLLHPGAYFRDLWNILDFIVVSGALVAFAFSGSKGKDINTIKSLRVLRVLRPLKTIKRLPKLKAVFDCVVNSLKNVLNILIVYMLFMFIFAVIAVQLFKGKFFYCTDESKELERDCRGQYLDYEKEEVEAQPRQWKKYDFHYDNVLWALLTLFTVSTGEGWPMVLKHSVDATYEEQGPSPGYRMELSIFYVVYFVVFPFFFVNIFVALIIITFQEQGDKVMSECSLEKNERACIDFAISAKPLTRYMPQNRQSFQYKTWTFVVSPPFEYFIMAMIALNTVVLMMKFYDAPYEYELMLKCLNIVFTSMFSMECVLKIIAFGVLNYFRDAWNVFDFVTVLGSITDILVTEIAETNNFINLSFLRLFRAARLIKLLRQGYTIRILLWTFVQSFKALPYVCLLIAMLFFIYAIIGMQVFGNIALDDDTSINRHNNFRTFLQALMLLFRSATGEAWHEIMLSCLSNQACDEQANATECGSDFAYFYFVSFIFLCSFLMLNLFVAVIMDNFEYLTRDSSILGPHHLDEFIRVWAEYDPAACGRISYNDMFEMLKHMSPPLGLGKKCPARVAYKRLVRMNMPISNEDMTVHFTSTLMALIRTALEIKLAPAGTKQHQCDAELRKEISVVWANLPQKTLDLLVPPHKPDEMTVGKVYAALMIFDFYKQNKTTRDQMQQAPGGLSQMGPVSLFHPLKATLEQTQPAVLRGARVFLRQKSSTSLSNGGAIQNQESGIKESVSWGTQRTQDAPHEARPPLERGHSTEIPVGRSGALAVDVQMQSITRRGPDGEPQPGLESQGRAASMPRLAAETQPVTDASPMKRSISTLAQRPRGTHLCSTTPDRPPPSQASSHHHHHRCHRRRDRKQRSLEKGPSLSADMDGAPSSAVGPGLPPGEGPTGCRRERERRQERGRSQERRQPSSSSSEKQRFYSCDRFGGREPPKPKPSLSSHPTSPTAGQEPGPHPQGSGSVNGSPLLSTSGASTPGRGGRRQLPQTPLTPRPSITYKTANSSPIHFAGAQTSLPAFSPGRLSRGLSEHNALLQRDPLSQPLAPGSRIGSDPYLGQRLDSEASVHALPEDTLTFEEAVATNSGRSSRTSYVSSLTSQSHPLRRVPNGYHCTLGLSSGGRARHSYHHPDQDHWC
human Cav2.2, sequence (P54289 25-951 partner limits assumed): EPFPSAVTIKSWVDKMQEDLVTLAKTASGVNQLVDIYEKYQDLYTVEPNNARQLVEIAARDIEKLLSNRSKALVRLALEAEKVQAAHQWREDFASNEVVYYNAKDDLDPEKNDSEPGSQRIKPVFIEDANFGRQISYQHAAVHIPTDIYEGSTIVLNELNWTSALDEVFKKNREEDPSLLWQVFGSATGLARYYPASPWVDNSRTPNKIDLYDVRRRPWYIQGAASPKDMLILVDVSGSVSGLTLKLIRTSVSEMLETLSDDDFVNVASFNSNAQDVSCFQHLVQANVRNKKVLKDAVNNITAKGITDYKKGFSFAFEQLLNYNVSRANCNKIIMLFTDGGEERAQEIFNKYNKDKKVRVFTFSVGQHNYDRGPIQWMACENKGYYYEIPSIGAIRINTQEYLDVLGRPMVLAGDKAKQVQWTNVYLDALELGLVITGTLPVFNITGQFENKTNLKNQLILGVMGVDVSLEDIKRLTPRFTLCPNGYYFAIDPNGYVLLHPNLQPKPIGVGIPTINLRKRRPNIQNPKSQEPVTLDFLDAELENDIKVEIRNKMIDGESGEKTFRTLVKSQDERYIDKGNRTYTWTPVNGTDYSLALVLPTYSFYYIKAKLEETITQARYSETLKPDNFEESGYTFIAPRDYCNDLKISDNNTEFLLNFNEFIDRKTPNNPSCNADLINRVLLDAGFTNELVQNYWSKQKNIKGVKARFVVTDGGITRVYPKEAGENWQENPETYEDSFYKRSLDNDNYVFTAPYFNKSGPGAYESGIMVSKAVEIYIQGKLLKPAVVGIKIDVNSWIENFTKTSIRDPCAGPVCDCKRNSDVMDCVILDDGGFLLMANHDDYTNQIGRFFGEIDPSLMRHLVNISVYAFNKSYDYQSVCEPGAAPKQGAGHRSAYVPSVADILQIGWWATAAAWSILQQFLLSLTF
human Cav2.2, sequence (P54289 952-1103 partner limits assumed): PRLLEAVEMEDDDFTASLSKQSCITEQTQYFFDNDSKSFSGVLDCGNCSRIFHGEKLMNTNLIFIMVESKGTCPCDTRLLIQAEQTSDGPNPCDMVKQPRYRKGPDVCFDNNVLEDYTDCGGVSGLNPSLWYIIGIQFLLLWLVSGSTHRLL
human Cav2.2, sequence (P54284 whole entry partner): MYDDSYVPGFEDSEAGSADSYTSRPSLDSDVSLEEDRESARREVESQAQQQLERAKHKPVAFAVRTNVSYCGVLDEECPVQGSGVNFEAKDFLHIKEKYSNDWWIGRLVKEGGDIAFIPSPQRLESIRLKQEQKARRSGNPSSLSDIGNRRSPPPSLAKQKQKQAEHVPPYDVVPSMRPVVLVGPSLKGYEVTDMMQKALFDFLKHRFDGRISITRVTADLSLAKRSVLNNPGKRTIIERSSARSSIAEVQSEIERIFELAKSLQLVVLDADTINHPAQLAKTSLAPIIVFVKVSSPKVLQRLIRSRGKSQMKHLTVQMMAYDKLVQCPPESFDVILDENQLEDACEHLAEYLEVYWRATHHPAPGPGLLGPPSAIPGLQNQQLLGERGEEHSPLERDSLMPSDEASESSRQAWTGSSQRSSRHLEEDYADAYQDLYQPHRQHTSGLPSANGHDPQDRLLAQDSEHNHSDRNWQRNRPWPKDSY

`O=C(CN1CCCC(c2ccccc2)(c2ccccc2)C1=O)NC1CCN(Cc2ccc(F)c(C(F)(F)F)c2)CC1` [Example 183, N-{1-[4-fluoro-3-(trifluoromethyl)benzyl]piperidin-4-yl}-2-(2-oxo-3,3-diphenylpiperidin-1-yl)acetamide] and `O=C(CN1CCCC(c2ccccc2)(c2ccccc2)C1=O)NC1CN(Cc2ccc(F)c(C(F)(F)F)c2)C1` [Example 198, N-{1-[4-fluoro-3-(trifluoromethyl)benzyl]azetidin-3-yl}-2-(2-oxo-3,3-diphenylpiperidin-1-yl)acetamide] are within 1.5-fold of each other in IC50: 0.96 µM for the first, 0.72 µM for the second.

`O=C(CN1CCCC(c2ccccc2)(c2ccccc2)C1=O)N1CCN(Cc2ccc(F)c(C(F)(F)F)c2)CC1` [Example 184, 1-(2-{4-[4-fluoro-3-(trifluoromethyl)benzyl]piperazin-1-yl}-2-oxoethyl)-3,3-diphenylpiperidin-2-one] and `O=C(CN1CCCC(c2ccccc2)(c2ccccc2)C1=O)NC1CCN(Cc2cccc(C(F)(F)F)c2)CC1` [Example 200, 2-(2-oxo-3,3-diphenylpiperidin-1-yl)-N-{1-[3-(trifluoromethyl)benzyl]piperidin-4-yl}acetamide] are within 1.5-fold of each other in IC50: 1.27 µM for the first, 1.01 µM for the second.

`O=C(CN1CCCC(c2ccccc2)(c2ccccc2)C1=O)N[C@H]1CCN(Cc2cccc(C(F)(F)F)c2)C1` [Example 185, 2-(2-oxo-3,3-diphenylpiperidin-1-yl)-N-{(3S)-1-[3-(trifluoromethyl)benzyl]pyrrolidin-3-yl}acetamide] and `O=C(CN1CCCC(c2ccccc2)(c2ccccc2)C1=O)N[C@@H]1CCN(Cc2cccc(C(F)(F)F)c2)C1` [Example 186, 2-(2-oxo-3,3-diphenylpiperidin-1-yl)-N-{(3R)-1-[3-(trifluoromethyl)benzyl]pyrrolidin-3-yl}acetamide] are within 1.5-fold of each other in IC50: 1.15 µM for the first, 1.37 µM for the second.

`O=C1C(c2ccc(F)cc2)CCN1Cc1nc(-c2ccc(C(F)(F)F)cc2)no1` (centres unmarked) [Example 189, 3-(4-fluorophenyl)-1-({3-[4-(trifluoromethyl)phenyl]-1,2,4-oxadiazol-5-yl}methyl)pyrrolidin-2-one] and `O=C1N(Cc2nc(-c3ccc(C(F)(F)F)cc3)no2)CCC1(c1ccc(F)cc1)c1ccc(F)cc1` [Example 190, 3,3-bis(4-fluorophenyl)-1-({3-[4-(trifluoromethyl)phenyl]-1,2,4-oxadiazol-5-yl}methyl)pyrrolidin-2-one] are within 1.5-fold of each other in IC50: 5.82 µM for the first, 7.07 µM for the second.

`O=C1N(Cc2nc(-c3ccc(C(F)(F)F)cc3)no2)CCCC1(c1ccc(F)cc1)c1ccc(F)cc1` [Example 191, 3,3-bis(4-fluorophenyl)-1-({3-[4-(trifluoromethyl)phenyl]-1,2,4-oxadiazol-5-yl}methyl)piperidin-2-one] and `O=C1N(Cc2nc(-c3ccc(OC(F)(F)F)cc3)no2)CCCC1(c1ccccc1)c1ccccc1` [Example 199, 3,3-diphenyl-1-({3-[4-(trifluoromethoxy)phenyl]-1,2,4-oxadiazol-5-yl}methyl)piperidin-2-one] are within 1.5-fold of each other in IC50: 6.87 µM for the first, 5.98 µM for the second.

Compared with `O=C(CN1CCCC(c2ccccc2)C1=O)Nc1ccc(Cl)cn1` (centres unmarked) [Example 192, N-(5-chloropyridin-2-yl)-2-(2-oxo-3-phenylpiperidin-1-yl)acetamide], `O=C1N(Cc2nc(Cc3ccc(Cl)cc3)no2)CCCC1(c1ccccc1)c1ccccc1` [Example 207, 1-{[3-(4-chlorobenzyl)-1,2,4-oxadiazol-5-yl]methyl}-3,3-diphenylpiperidin-2-one] is 2.4-fold lower in IC50: 12 µM for the first, 5.03 µM for the second.

`O=C1N(Cc2nc(-c3ccc(Cl)cc3)no2)CCC1(c1ccccc1)c1ccccc1` [Example 193, 1-{[3-(4-chlorophenyl)-1,2,4-oxadiazol-5-yl]methyl}-3,3-diphenylpyrrolidin-2-one] and `O=C1N(Cc2nc(-c3ccc(F)cc3)no2)CCC1(c1ccccc1)c1ccccc1` [Example 194, 1-{[3-(4-fluorophenyl)-1,2,4-oxadiazol-5-yl]methyl}-3,3-diphenylpyrrolidin-2-one] are within 1.5-fold of each other in IC50: 4.67 µM for the first, 4.08 µM for the second.

First: Cc1ccc(-c2noc(CN3CCC(c4ccccc4)(c4ccccc4)C3=O)n2)cc1 [Example 195, 1-{[3-(4-methylphenyl)-1,2,4-oxadiazol-5-yl]methyl}-3,3-diphenylpyrrolidin-2-one]
Second: CC(C)(C)c1ccc(-c2noc(CN3CCC(c4ccccc4)(c4ccccc4)C3=O)n2)cc1 [Example 202, 1-{[3-(4-tert-butylphenyl)-1,2,4-oxadiazol-5-yl]methyl}-3,3-diphenylpyrrolidin-2-one]
The IC50 of the first is 2.9-fold lower: 3.57 µM for the first, 10.4 µM for the second. The first is the more potent here.

`O=C1N(Cc2noc(-c3ccc(C(F)(F)F)cc3)n2)CCC1(c1ccccc1)c1ccccc1` [Example 196, 3,3-diphenyl-1-({5-[4-(trifluoromethyl)phenyl]-1,2,4-oxadiazol-3-yl}methyl)pyrrolidin-2-one] and `O=C1N(Cc2nc(-c3ccc(O)cc3)no2)CCCC1(c1ccccc1)c1ccccc1` [Example 206, 1-{[3-(4-hydroxyphenyl)-1,2,4-oxadiazol-5-yl]methyl}-3,3-diphenylpiperidin-2-one] are within 1.5-fold of each other in IC50: 4.01 µM for the first, 4.89 µM for the second.

`CN(C(=O)CN1CCCC(c2ccccc2)(c2ccccc2)C1=O)C1CCN(Cc2cccc(C(F)(F)F)c2)CC1` [Example 197, N-methyl-2-(2-oxo-3,3-diphenylpiperidin-1-yl)-N-{1-[3-(trifluoromethyl)benzyl]piperidin-4-yl}acetamide] and `O=C(CN1CCCC(c2ccccc2)(c2ccccc2)C1=O)NC1CN(Cc2cccc(C(F)(F)F)c2F)C1` [Example 201, N-{1-[2-fluoro-3-(trifluoromethyl)benzyl]azetidin-3-yl}-2-(2-oxo-3,3-diphenylpiperidin-1-yl)acetamide] are within 1.5-fold of each other in IC50: 1 µM for the first, 0.86 µM for the second.

First: O=C(CN1CCC(c2ccccc2)(c2ccccc2)C1=O)N1CCC(c2ccc(F)cc2)(c2ccc(F)cc2)C1 [Example 203, 1-{2-[3,3-bis(4-fluorophenyl)pyrrolidin-1-yl]-2-oxoethyl}-3,3-diphenylpyrrolidin-2-one]
Second: O=C(CN1CCCC(c2ccccc2)(c2ccccc2)C1=O)N1CCC(c2ccc(F)cc2)(c2ccc(F)cc2)C1 [Example 205, 1-{2-[3,3-bis(4-fluorophenyl)pyrrolidin-1-yl]-2-oxoethyl}-3,3-diphenylpiperidin-2-one]
The IC50 of the first is 1.5-fold lower: 2.16 µM for the first, 3.32 µM for the second.

Compared with `O=C(CN1CCC(c2ccc(F)cc2)(c2ccc(F)cc2)C1=O)N1CCC(c2ccc(F)cc2)(c2ccc(F)cc2)C1` [Example 204, 1-{2-[3,3-bis(4-fluorophenyl)pyrrolidin-1-yl]-2-oxoethyl}-3,3-bis(4-fluorophenyl)pyrrolidin-2-one], `O=C(CN1CCC(c2ccc(F)cc2)(c2ccc(F)cc2)C1=O)N1C[C@@H]2CCCN(Cc3cccc(C(F)(F)F)c3)[C@@H]2C1` [Example 210, 3,3-bis(4-fluorophenyl)-1-(2-oxo-2-{(4aS,7aS)-1-[3-(trifluoromethyl)benzyl]octahydro-6H-pyrrolo[3,4-b]pyridin-6-yl}ethyl)pyrrolidin-2-one] is 3.2-fold lower in IC50: 3.04 µM for the first, 0.96 µM for the second.

Compared with `O=C(CN1CCC(c2ccc(F)cc2)(c2ccc(F)cc2)C1=O)NC1CCN(Cc2cccc(C(F)(F)F)c2)CC1` [Example 208, 2-[3,3-bis(4-fluorophenyl)-2-oxopyrrolidin-1-yl]-N-{1-[3-(trifluoromethyl)benzyl]piperidin-4-yl}acetamide], `CC(C)COc1ccc(-c2noc(CN3CCCC(c4ccccc4)(c4ccccc4)C3=O)n2)cc1` [Example 209, 1-{[3-(4-isobutoxyphenyl)-1,2,4-oxadiazol-5-yl]methyl}-3,3-diphenylpiperidin-2-one] is 4.5-fold higher in IC50: 2.4 µM for the first, 10.7 µM for the second.
